Experimental data from article PMC10611828 (European Journal of Nuclear Medicine and Molecular Imaging, 2023).
Where two headings read alike, the source gives them in different places.

Experiments:
[1] = Stability in human serum at 37 °C (radio-HPLC); type: in vitro ADME
Method: (§1) The ^177Lu-labeled peptides were incubated in 300-μL phosphate buffered saline (PBS; Gibco, ThermoFisher, The Netherlands) at 37 °C, and their stability was verified after 1, 4, 24, 48, and 72 h by radio-HPLC (Supplementary Fig. 2). The stability in serum was determined by incubating the radiolabeled compounds into 300 μL of mouse serum (Invitrogen, USA) or human serum (Sigma Aldrich, USA) at 37 °C (Supplementary Fig. 3, 4). At each time point post-incubation, 35 μL of the mixture was added to an Eppendorf tube, and the proteins were precipitated by adding an equal volume of acetonitrile. The tubes were centrifuged at 16,000 rpm, 4 °C for 20 min, and the stability was monitored by radio-HPLC, expressed as the RCP at the different time points.

[2] = Stability in mouse serum at 37 °C (radio-HPLC); type: in vitro ADME
Method: as §1

[3] = parameters: method as in PMID 35951084; conditions: cited from earlier work
[4] = In vivo biodistribution and clearance in PC-3 tumor-bearing mice; conditions: male, NMRI-Foxn1 nu/nu, mouse, iv, total radioactivity, i.v.; for tissue uptake at 1 h: 1 h p.i.; for tissue uptake at 4 h: 4 h p.i.; for tissue uptake at 24 h: 24 h p.i.; for tissue uptake at 48 h: 48 h p.i.; for tissue uptake at 72 h: 72 h p.i.
Method: All animal experiments were approved by the Animal Welfare Committee of the Erasmus MC, and all experiments were conducted in accordance to institutional guidelines.
At 1, 4, 24, 48, and 72 h post-injection (p.i.), animals were sedated using 2.5% isoflurane in oxygen, and blood was collected via the orbital vein, after which the animals were euthanized using cervical dislocation. Subsequently, the following organs were collected; the tail, tumor, spleen, liver, pancreas, small intestine, colon, coecum, kidneys, lung, and muscle. […] The collected tumor and organs were weighed, and the radioactivity was measured in the gamma counter. The biodistribution data are expressed as percentage injected dose per gram of tissue (% ID/g). Animal numbers per group are indicated in Supplementary Table 1 and 2.
Statistical analysis was performed using Graphpad Prism version 9.0.0. Outliers were identified using the ROUT method with a Q value of 1%. IC50 curves were determined using non-linear regression.

[5] = 1 h, read-out: intact radiolabeled ligand (RCP)
[6] = 4 h, read-out: intact radiolabeled ligand (RCP)
[7] = 24 h, read-out: intact radiolabeled ligand (RCP)
[8] = 48 h, read-out: intact radiolabeled ligand (RCP)
[9] = 72 h, read-out: intact radiolabeled ligand (RCP)
[10] = PC-3 tumor, read-out: % uptake PC-3 tumor
[11] = blood, read-out: % uptake blood
[12] = gastrointestinal tract, read-out: % uptake gastrointestinal tract
[13] = kidney, read-out: % uptake kidney
[14] = liver, read-out: % uptake liver
[15] = muscle, read-out: % uptake muscle
[16] = pancreas, read-out: % uptake pancreas
[17] = prostate, read-out: % uptake prostate
[18] = spleen, read-out: % uptake spleen

CC(C)CC(CC(C)C)NC(=O)[C@H](Cc1cnc[nH]1)NC(=O)CNC(=O)[C@@H](NC(=O)[C@H](C)NC(=O)[C@H](Cc1c[nH]c2ccccc12)NC(=O)[C@H](CCC(N)=O)NC(=O)[C@@H](Cc1ccccc1)NC(=O)COCC(=O)Nc1ccc(CNC(=O)CN2CCN(CC(=O)O)CCN(CC(=O)O)CCN(CC(=O)O)CC2)cc1)C(C)C [[^177Lu]Lu-NeoB, metal not drawn]
intact radiolabeled ligand (RCP) ([1]; 0 h): 97.1 ± 0.3%
remaining at 1 h [1, 5]: 97.9 ± 0.2%
remaining at 4 h [1, 6]: 97.8 ± 0.3%
remaining at 24 h [1, 7]: 89.2 ± 0.5%
remaining at 48 h [1, 8]: 81 ± 0.7%
remaining at 72 h [1, 9]: 75.6 ± 1.7%
intact radiolabeled ligand (RCP) ([2]; 0 h): 97.1 ± 0.3%
remaining at 1 h [2, 5]: 94.3 ± 0.7%
remaining at 4 h [2, 6]: 84.1 ± 1.1%
remaining at 24 h [2, 7]: 27.9 ± 2.3%
remaining at 48 h [2, 8]: 14.2 ± 1%
remaining at 72 h [2, 9]: 4.4 ± 1.2%
tolerability ([3]; after repeated radiotracer administration): well tolerated
hematological effects after treatment [3]: no lasting hematological effects
tissue uptake at 1 h [4, 10]: 9.38 ± 0.81 %ID/g
tissue uptake at 4 h [4, 10]: 9.98 ± 2.64 %ID/g
tissue uptake at 24 h [4, 10]: 8.05 %ID/g
tissue uptake at 48 h [4, 10]: 4.77 %ID/g
tissue uptake at 72 h [4, 10]: 2.88 %ID/g
tissue uptake at 1 h [4, 11]: 1.15 %ID/g
tissue uptake at 4 h [4, 11]: 0.11 %ID/g
tissue uptake at 24 h [4, 11]: 0.01 %ID/g
tissue uptake at 48 h [4, 11]: 0.01 %ID/g
tissue uptake at 1 h [4, 12]: 3.08 %ID/g
tissue uptake at 4 h [4, 12]: 1.91 %ID/g
tissue uptake at 24 h [4, 12]: 0.09 %ID/g
tissue uptake at 48 h [4, 12]: 0.26 %ID/g
tissue uptake at 72 h [4, 12]: 0.15 %ID/g
tissue uptake at 1 h [4, 13]: 2.68 %ID/g
tissue uptake at 4 h [4, 13]: 0.86 %ID/g
tissue uptake at 24 h [4, 13]: 0.1 %ID/g
tissue uptake at 48 h [4, 13]: 0.06 %ID/g
tissue uptake at 72 h [4, 13]: 0.04 %ID/g
tissue uptake at 1 h [4, 14]: 3.35 %ID/g
tissue uptake at 4 h [4, 14]: 0.54 %ID/g
tissue uptake at 24 h [4, 14]: 0.12 %ID/g
tissue uptake at 48 h [4, 14]: 0.08 %ID/g
tissue uptake at 72 h [4, 14]: 0.06 %ID/g
tissue uptake at 1 h ([4]; lung, read-out: % uptake lungs): 0.69 %ID/g
tissue uptake at 4 h ([4]; lung, read-out: % uptake lungs): 0.09 %ID/g
tissue uptake at 24 h ([4]; lung, read-out: % uptake lungs): 0.02 %ID/g
tissue uptake at 48 h ([4]; lung, read-out: % uptake lungs): 0.01 %ID/g
tissue uptake at 72 h ([4]; lung, read-out: % uptake lungs): 0.01 %ID/g
tissue uptake at 1 h [4, 15]: 0.13 %ID/g
tissue uptake at 4 h [4, 15]: 0.05 %ID/g
tissue uptake at 1 h [4, 16]: 30.7 ± 4.29 %ID/g
tissue uptake at 4 h [4, 16]: 21.4 ± 3.05 %ID/g
tissue uptake at 24 h [4, 16]: 4.14 %ID/g
tissue uptake at 48 h [4, 16]: 0.83 %ID/g
tissue uptake at 72 h [4, 16]: 0.35 %ID/g
tissue uptake at 1 h [4, 17]: 0.7 %ID/g
tissue uptake at 4 h [4, 17]: 0.08 %ID/g
tissue uptake at 24 h [4, 17]: 0.02 %ID/g
tissue uptake at 48 h [4, 17]: 0.01 %ID/g
tissue uptake at 72 h [4, 17]: 0.01 %ID/g
tissue uptake at 1 h [4, 18]: 0.43 %ID/g
tissue uptake at 4 h [4, 18]: 0.15 %ID/g
tissue uptake at 24 h [4, 18]: 0.04 %ID/g
tissue uptake at 48 h [4, 18]: 0.02 %ID/g
tissue uptake at 72 h [4, 18]: 0.01 %ID/g
